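Exposure lasted 48 hours, with cells grown in 96-well plates and compounds tested at five concentrations. Abbreviation: GI50, concentration required for 50% inhibition of growth. TGI is the concentration that stops growth completely.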 *1 amine or outer side, *2 acyl side, *3 side chain or, on linkers, in order; H or OH if unused. Where a SMILES comes first, the peptide text is derived from it. The star is where a group is joined. γGlu = O=C(O)[CH](CCC(=O)[*:2])N[*:1]; Cbz = O=C(OCc1ccccc1)*; NHOH = ON*
What was measured:
Assay in all cases: DTP human tumour cell line panel, 48 h
EKVX NSCLC = system: EKVX NSCLC
HCC-2998 colon = system: HCC-2998 colon
MALME-3M melanoma = system: MALME-3M melanoma
MDA-MB-231 breast = system: MDA-MB-231 breast
NCI-H23 lung = system: NCI-H23 lung
SNB-19 CNS = system: SNB-19 CNS
NCI-H226 lung = system: NCI-H226 lung
IGROV1 ovarian = system: IGROV1 ovarian
SK-MEL-2 melanoma = system: SK-MEL-2 melanoma

SMILES	TGI (EKVX NSCLC) [µM]	TGI (HCC-2998 colon) [µM]	TGI (MALME-3M melanoma) [µM]	TGI (MDA-MB-231 breast) [µM]	TGI (NCI-H23 lung) [µM]	TGI (SNB-19 CNS) [µM]	TGI (NCI-H226 lung) [µM]	TGI (IGROV1 ovarian) [µM]	TGI (SK-MEL-2 melanoma) [µM]	GI50 (IGROV1 ovarian) [µM]	GI50 (HCC-2998 colon) [µM]	GI50 (MALME-3M melanoma) [µM]	GI50 (SNB-19 CNS) [µM]
CC(C)(C)c1ccc(O)c(C(O)c2ccccn2)c1 (configuration not stated)	> 100	85.9	> 100	> 100	> 100	> 100	> 100	–	–	–	–	–	–
CCOC(=O)c1ccc(-c2onc(C)c2Br)[nH]1	> 100	> 100	> 100	> 100	> 100	> 100	–	> 100	> 100	–	–	–	–
CCCCOC(=O)Nc1ccc(S(=O)(=O)Nc2c(Cl)cccc2Cl)cc1	71.6	43.4	62.7	67.2	> 100	> 100	–	79.5	66.8	–	–	–	–
NC(CCC(=O)NC(CCC(=O)NO)C(=O)NCC(=O)O)C(=O)O (configuration not stated) (γGlu-Glu(NHOH)-Gly-OH; configuration not given here)	> 100	> 100	–	> 100	> 100	> 100	> 100	> 100	> 100	–	–	–	–
COc1ccc(-c2nc(-c3nc4cc(Cl)c(Cl)cc4[nH]3)c3ccccn23)cc1	–	> 100	5.85	–	–	> 100	–	> 100	–	3.73	> 100	2.51	2.64
Cc1ccc(N=NC(=Nc2ccc(F)cc2)c2ccc(N(CCC#N)CCC#N)cc2)cc1	> 100	> 100	–	> 100	> 100	> 100	> 100	> 100	> 100	–	–	–	–
O=c1[nH]nc(-c2ccc3ccccc3c2)[nH]1	64.4	> 100	> 100	–	> 100	> 100	> 100	> 100	> 100	–	–	–	–
CC1OC1C(=O)P(=O)(O)O (configuration not stated)	> 100	> 100	–	> 100	> 100	> 100	> 100	> 100	> 100	–	–	–	–
C[C@]12C(=O)OC[C@H](c3ccccc3)N1C(=O)N(Cc1ccccc1)[C@@H]2CO	> 100	> 100	> 100	> 100	–	> 100	> 100	> 100	> 100	–	–	–	–
CCN(CC)C1=Nc2ccccc2-n2ccnc2C1	> 100	> 100	–	> 100	> 100	> 100	> 100	> 100	> 100	–	–	–	–
CN1CCN(c2n[nH]c(=O)c3c2nnn3Cc2ccccc2)CC1	> 100	> 100	> 100	> 100	> 100	> 100	–	–	> 100	–	–	–	–
CCOC(=O)CCC(NC(=O)C(CC(=O)OC)NC(=O)OCc1ccccc1)C(=O)NC(CC(=O)OC)C(=O)NC(CCC(=O)OCC)C(=O)NC(CC(=O)OC)C(=O)NC(CCC(=O)OCC)C(=O)NC(CC(=O)OCC)C(=O)OCC (configuration not stated) (Cbz-D(OMe)E(OEt)D(OMe)E(OEt)D(OMe)E(OEt)D(OEt)-OEt; configuration not given here)	–	> 100	> 100	> 100	> 100	> 100	> 100	> 100	> 100	–	–	–	–
O=C1c2cccnc2S(=O)(=O)N1c1ccc(Br)cc1	> 100	–	> 100	> 100	> 100	> 100	> 100	> 100	> 100	–	–	–	–
COc1ccc(Nc2nc3ccccc3nc2-c2cccs2)cc1OC	> 10	> 10	–	> 10	> 10	> 10	> 10	> 10	> 10	–	–	–	–
O=C1C(NS(=O)(=O)c2ccccc2)=C(n2ccnc2)C(=O)c2ccccc21	> 100	–	> 100	> 100	> 100	> 100	> 100	> 100	> 100	–	–	–	–
C#CCOC(=O)C=[N+]=[N-]	> 10	–	> 10	> 10	> 10	> 10	> 10	> 10	> 10	–	–	–	–
Cc1cc2c3c(c1)S(=O)(=O)c1cc(Cl)ccc1N3CCC2	> 100	> 100	> 100	> 100	–	> 100	> 100	> 100	> 100	–	–	–	–
CCOC(=O)Cn1nnc2ccc(Nc3nc4ccccc4nc3C(=O)OCC)cc21	> 100	> 100	> 100	–	> 100	> 100	> 100	> 100	> 100	–	–	–	–
O=[N+]([O-])C1=Cc2c(O)ccc(O)c2C2OC=CC12 (configuration not stated)	36.8	> 57.8	–	40.1	32.4	52.2	> 73.8	45.4	41	–	–	–	–
Nc1nc(N)c2cc(-c3cc4ccccc4[nH]3)ccc2n1	95	–	30.4	39.3	> 100	> 100	93.7	33.4	36.4	–	–	–	–
O=C(CSc1nc2ccccc2c(=O)n1-c1ccccc1)N=Nc1c(O)[nH]c2ccc(Br)cc12	9.83	> 100	5.74	3.58	10.8	27.2	–	5.03	47.1	–	–	–	–
COc1nc2ncc([C@@H](OC(C)=O)[C@@H](COC(C)=O)OC(C)=O)nc2c(=O)n1C	> 100	–	> 100	> 100	–	> 100	> 100	> 100	> 100	–	–	–	–
Cc1cc2c(cc1Cl)SSc1cc(Cl)c(C)cc1S(=O)(=O)Nc1nc(N)nn1C(O)n1nc(N)nc1NS2(=O)=O	> 10	> 10	> 10	–	> 10	> 10	> 10	> 10	> 10	–	–	–	–
C[N+](C)(N)Cc1nc(-c2ccc(Cl)cc2)no1	> 100	–	> 100	> 100	> 100	> 100	> 100	> 100	> 100	–	–	–	–
c1ccc(C/C(=N\Nc2nc3ccccc3[nH]2)c2ccccn2)cc1	–	30.9	2.23	13.4	13.5	17.9	0.295	0.327	15.3	–	–	–	–
